SMILES strings stand for the structures. Non-standard residues stand in square brackets, D forms with d. Residues, ends and D or L forms follow the SMILES beside them. Trp(6-Cl) = N[C@@H](Cc1c[nH]c2cc(Cl)ccc12)C(=O)O; Pmp = N[C@@H](Cc1ccc(CP(=O)(O)O)cc1)C(=O)O; Ac3c = NC1(C(=O)O)CC1; Aib = CC(C)(N)C(=O)O

This assay is described as follows: Inhibition of p53 binding to […] (hdm2-GST).

The compound `CSCC[C@H](NC(=O)[C@H](Cc1ccccc1)NC(C)=O)C(=O)NC(C)(C)C(=O)N[C@@H](Cc1ccc(CP(=O)(O)O)cc1)C(=O)N[C@@H](Cc1c[nH]c2cc(Cl)ccc12)C(=O)N[C@@H](CCC(=O)O)C(=O)NC1(C(=O)N[C@@H](CC(C)C)C(N)=O)CC1` [Ac-Phe-Met-Aib-Pmp-6-Cl-Trp-Glu-Ac3c-Leu-NH2, GST-hdm2 binding peptide] (Ac-FM[Aib][Pmp][Trp(6-Cl)]E[Ac3c]L-NH2) gave an IC50 of 5 nM.

For orientation: IC50 means the concentration that gives 50% inhibition. Read a high IC50 as weaker potency.

The record behind these values is BindingDB's records for doi:10.1021/jm010468s (Pfizer, 2002).
